Data reported in a melting point compilation (Tetko et al.; mined from patent text by program, amines drawn as free bases though some values may be those of a salt).

SMILES	melting point [°C]
CC(C(=O)NCC(=O)OCc1ccccc1)N1CCN(CC(=O)OC(C)(C)C)CCN(CC(=O)OC(C)(C)C)CCN(CC(=O)OC(C)(C)C)CC1 (centres undefined)	116 to 117
CCC(=O)Nc1nc(CN2CCC(c3c[nH]c4ccccc34)CC2)cs1	192 to 195
COc1nnc(Cl)c2c1CCCC2	117 to 119
CC(C)(C)c1cc(-n2nc3ccc(Sc4ccc5nn(-c6cc(C(C)(C)C)cc(C(C)(C)C)c6O)nc5c4)cc3n2)c(O)c(C(C)(C)C)c1	245 to 246
O=C(Nc1ccc(CCNc2ncccn2)cc1)c1cccs1	191 to 192
O=C(NN1CCCCC1)c1nn(-c2ccccc2-c2ccccc2Cl)c2c1C1CC3CC(C1)CC2C3	206
O=C(/C=C/C=C/c1ccccc1[N+](=O)[O-])NCCCCCC(=O)NO	131 to 133
c1ccc(Nc2ccc(Cc3ccc(Nc4ccccc4)c4ccccc34)c3ccccc23)cc1	154 to 157
CN1C(=O)C(C)(C)N=C(c2ccccc2F)c2cc(NC(=O)C(C)(C)N)ccc21	250
CCOC(=O)/C(=N\O[C@@H]1CCCC[C@@H]1C)c1csc(N)n1 (relative stereo)	123 to 126
Nc1nc(N2CCC2)c2ncn(C3CC(F)C(CO)O3)c2n1 (centres undefined)	127 to 129
CCCCNC(=O)NS(=O)(=O)c1cccc2c1nnn2C	170 to 173
Nc1ccc(NNC(=O)c2ccccc2)cc1	134 to 136
O=C(/C=C/C=C/c1ccc(Br)cc1)NCCCC(=O)NO	173 to 175
CN(C)C(=S)Nc1ccc(NNC=O)cc1	187 to 189
COC(=O)CC1CCN(C(=O)c2cnc(-c3ccc(C(=N)NC(=O)OC)cc3)nc2OC)CC1	193 to 195
C[Si](C)(C)CCCCCCCCCCCCCCNc1ccc(C(=O)O)cc1	105 to 107
Nc1[nH]c(=S)nc2nc[nH]c12	196 to 198
COc1ccc(C[N+](=O)[O-])c(C=CC[N+](=O)[O-])c1OCc1ccccc1	149 to 150
C=CCN(CC=C)c1nc(NC(=O)C=C)n2oc(=O)nc2n1	157 to 161
COC(=O)c1nc2nc(C)c(C)c(S)n2n1	206 to 207
CC(C)(C)OC(=O)NN(C(=O)OC(C)(C)C)C1(c2cccnc2)CCCCC1=O (centres undefined)	123 to 125
NC(=O)CCCCn1ccc(NC(N)=NCC(F)(F)F)n1	130

SMILES	melting point [°C]
O=c1cc(-c2nnn[nH]2)oc2c(/C=C/c3ccc(OCCCCc4ccc(F)cc4)cc3)cccc12	174 to 175
CS(=O)(=O)c1ccc(-c2cc(C(=O)c3cc(-c4ccc(S(C)(=O)=O)cc4)c(N4CCOCC4)s3)sc2N2CCOCC2)cc1	235 to 236
Cc1ccc(CC(=S)N[C@@H](Cc2ccccc2)C(=O)O)cc1	92 to 93
COc1cc(C2c3cc4c(cc3C(NC(=O)CNCCN(C)C)C3COC(=O)C23)OCO4)cc(OC)c1O (centres undefined)	230
O=C(c1ccc(Nc2ccnc3cc(C(F)(F)F)ccc23)cc1)N1CCC(O)(c2cccc(C(F)(F)F)c2)CC1	278 to 279
O=C(C(=O)N1CCC(c2nnnn2-c2ccccc2)CC1)c1c[nH]c2c(-n3ccnn3)ncc(F)c12	257 to 258
CS(=O)(=O)OCCc1cc([N+](=O)[O-])ccc1COS(C)(=O)=O	88 to 89
COc1ccc(C=O)cc1OCC(F)F	66 to 68
Cc1ccc(C(=O)N(C(C)C)C(C)C)c(F)c1C1=NC(C)(C(C)C)C(=O)N1 (centres undefined)	205 to 210
CCOC(=O)C(C)(C)S(=O)(=O)c1ccc(OC)cc1	196
O=C1CCOc2c1ccc1c2OC(CN2CC=C(c3c[nH]c4ccccc34)CC2)CO1 (centres undefined)	210
CCCCCCCCCCCC(=O)N(CCO)CCNCCO	94
O=C(O)c1ccc(NC(O)C(=O)c2ccc(OCC3CCCCC3)cc2)cc1 (centres undefined)	188 to 190
COCC(=O)N[C@@H]1c2cc(C#N)ccc2OC(C)(C)[C@H]1O (relative stereo)	162 to 163
CCSc1cccc(OC(F)(F)F)c1S(N)(=O)=O	146
CCC(CC)(COc1nn2ncnc2cc1C)CS(N)(=O)=O	189 to 192
CCOC(=O)c1ccc(NS(C)(=O)=O)c([N+](=O)[O-])c1	124
O=C(O)CC[C@@H](Cc1cn(CCCc2ccccc2)c2ccccc12)NC(=O)CCCCCCc1ccccc1	100 to 102
COC(=O)c1cc(C(C)(C)C)c(O[Si](C)(C)Oc2c(C(C)(C)C)cc(C(=O)OC)cc2C(C)(C)C)c(C(C)(C)C)c1	197 to 198
Cc1ccc(-c2cccc(/C=C/C(=O)Nc3ccc(CN4CCN(Cc5ccc6c(c5)OCO6)CC4)cc3)c2)cc1	204 to 207
CC(C)(C)OC(=O)C(=NOC(C)(C)C(=O)OCC[Si](C)(C)C)c1csc(N)n1	83
COc1ccc2cc([C@H](C)C(=O)OC(C)C(=O)NCC(=O)O)ccc2c1 (some centres undefined)	174 to 175
O=C(O)C(Cl)(Cl)CCCCCCCCCCCCCCBr	61 to 63

Further lines, results first:

melting point [°C]	SMILES
> 250	COc1cc2ncc(C#N)c(Nc3ccc(C)c(Cl)c3)c2cc1OC
148 to 152	Oc1ccc2c(c1)OCC1c3ccccc3OC21 (centres undefined)
122 to 124	Cc1nn(-c2cccnc2)cc1[N+](=O)[O-]
153 to 156	Cc1csc(-c2ccc3nnn(Cc4ccc5ncccc5c4)c3n2)c1
196 to 198	OCC1OC(n2cnc3c(SCc4ccc5nc[nH]c5c4)ncnc32)C(O)C1O (centres undefined)
118 to 119	COc1cc2c(cc1C(=O)COc1ccc(C(=O)OCc3ccccc3)c(O)c1)C(C)(C)CCC2(C)C
> 300	CCC1C(=O)Nc2cc(N)c(N)cc21 (centres undefined)
56 to 61	c1ccc(COc2ccc([C@H]3CO3)cc2)cc1
121 to 124	COc1ccc(NC(=O)CN2CCC(Cc3ccc(F)cc3)CC2)cc1
306	O=C1Nc2ccc(I)cc2C1=NNC(=O)c1ccc(OC(F)(F)F)cc1
190 to 192	CNc1nc(Nc2ccccc2C)c2cccc(OC)c2n1
230 to 233	O=C1C=Cc2cc3c(cc2=C1)C=C(S(=O)(=O)NCCN1CCOCC1)C(=O)C=3S(=O)(=O)NCCN1CCOCC1
110 to 113	CCn1c2c(nc(-c3ccc(Cl)cc3)c1=O)CCCC2
229 to 230	COc1ccc2c(n1)c(C=O)c1n2Cc2ccccc2-1
132 to 135	NC1=Nc2ccccc2CS1
206 to 208	O=C(O)CC1(c2cccc(F)c2)NC(=O)NC1=O (centres undefined)
232 to 234	COc1cc(Nc2c(C#N)cnc3ccc(Br)cc23)c(Cl)cc1Cl
105	COc1cc(Cl)c(Cl)cc1Oc1ccc(Cl)cc1
92 to 93	CCOC(=O)C=Cc1ccc(OCc2csc(-c3ccccc3)n2)c(OC)c1
155	O=C(c1cc2c(cc1Cl)OCO2)N1CCOCC1
> 310	Cc1nc(NCC(F)(F)F)c2nc(-c3ccccc3)cc-2[nH]1
162 to 164	Cc1cccc(C)c1NC(=O)CCS(=O)c1cc(C(C)(C)C)c(O)c(C(C)(C)C)c1 (centres undefined)
58 to 60	C[C@@H](S[C@H]1CO[C@H](c2ccccc2)OC1)[C@](O)(Cn1cncn1)c1ccc(F)cc1F
105 to 106	CC(C)NC(=O)c1nc(-c2cccc(Cl)c2)c(-c2ccc(=O)n(C(C)C)n2)s1
248 to 255	Nc1ncc(Cc2ccc3c(c2)OCO3)c(N)n1
147	O=C1CC(c2cccc(Cl)c2)c2cc(C(=O)c3ccc([N+](=O)[O-])cc3)ccc2N1 (centres undefined)
89 to 90	Cc1ccc(CCOc2ccnc3c(F)cccc23)cc1

melting point [°C]	SMILES
78 to 81	COc1cc2[nH]c(=O)nc(C)c2c(C)c1OC
190 to 191	CCc1c(C(C)C)nc(C(C)C)c(C(C)O)c1-c1ccc(F)cc1O (centres undefined)
85	Cc1cc(O)c(O)cc1CC=Cc1ccccc1
148 to 150	O=c1c(Cl)nc2ccc(C(F)(F)F)cc2n1OCc1ccccc1
92 to 93	CN1Cc2cscc2Nc2cc(Cl)c(Cl)cc21
247	N#Cc1cc(F)c(N2C(=O)c3ccccc3C2=O)cc1O
165 to 169	COC(=O)NCCc1ccc(C(=O)OC)c(S(=O)(=O)NC(=O)Nc2nc(OC)cc(OC)n2)c1
118 to 120	COCCOc1ccc(CCC(=O)NS(=O)(=O)c2ccc(OC)cc2)c(Oc2ncc(C(F)(F)F)cc2Cl)c1
249	CC(=O)Nc1ccc(C(=O)O)cc1O
147 to 150	O=C(O)C1CCCc2c(-c3ccc(Cl)cc3)noc2CC1 (centres undefined)
141 to 152	c1nc(Nc2ccc3[nH]ccc3c2)c2sc(-c3ccc(CN4CCOCC4)cc3)cc2n1
70 to 75	COc1cccc(CNc2nccc(-c3cc(N4CCN(CCCN(C)C)CC4)c4cc(OC)ccc4c3)n2)c1
125 to 126	COc1cc2c(cc1OC)C(CCN1CCN(c3cccc(Cl)c3)CC1)OCCC2 (centres undefined)
228	FC(F)(F)c1nnc2c3cc(Cl)ccc3ccn12
193 to 195	CC1(C)CN(CC2Cc3nccnc3C2)c2nc(-c3ccncn3)cc(=O)n2C1
93 to 95	COC[C@@H](C)n1cc(Cl)nc(N2CCc3cc(Cl)cc(Cl)c32)c1=O
201 to 202	COC(=O)c1[nH]c2ccccc2c1Oc1ccccc1[N+](=O)[O-]
188 to 190	Oc1ccc(Nc2nc(Cl)nc(NCc3ccco3)n2)cc1
111 to 112	COC(=O)N[C@@H]1CCc2ccc(Br)cc2C1=O
196	FC(F)(F)c1cc(Br)c2nc(N3CCN(c4ncccc4C(F)(F)F)CC3)[nH]c2c1
98 to 101	Cc1nn(C)c(C2=NC(C)CN2)c1[N+](=O)[O-] (centres undefined)
68 to 72	Cc1cccc(C=CC(=O)C=Cc2cccc(C)c2)c1
123 to 126	COc1cc(OC)nc(Oc2cccc(Cl)c2C(=O)O)n1
145 to 148	COc1ccc(Cn2cnc3c(-c4ccco4)nc(I)nc32)cc1
110 to 113	O=C(c1ccc(Cl)cc1)N1N=C(C(F)(F)F)CC1(O)c1cc(F)ccc1F (centres undefined)
126 to 127	CCOC(=O)C1=C2COC=CN2C(C)=C(C(=O)OC)C1c1ccccc1Cl (centres undefined)
